Test results from US10022366B2, “Extending and maintaining micropore viability of microneedle treated skin with lipid biosynthesis inhibitors for sustained drug delivery” (University of Maryland, Baltimore, priority 2013, dated 2018).

Experiment: Reversibility/recovery of pores by transepidermal water loss (TEWL)
Type: in vivo, hairless guinea pigs (HGP)
Settings: following 7-day treatment with FLU in vivo
Excerpt: The reversibility/recovery of the pores following removal of occlusion was studied using transepidermal water loss (TEWL) in a HGP model. Five different sites were chosen on the dorsal region of an animal. […] All sites were marked and cleaned on the day of the treatment. […] The concentration and amount of NTX gel and FLU were consistent with the PK studies. A placebo gel was used for site 3 and site 4. The placebo gel was similar in composition to the NTX gel with 10% PG, 1% benzyl alcohol and 3% HEC as the gelling agent. […] All sites were occluded using a transdermal patch (148) secured in place with Bioclusive™ tape. […] All experiments were conducted at least in triplicate. Recovery of the skin, (i.e., regeneration of the barrier function of the SC) was studied using TEWL. These studies were carried out to look at the effect of the local concentration of FLU on the recovery/healing of the skin following removal of occlusion.

With `CC(C)n1c(/C=C/C(O)CC(O)CC(=O)O)c(-c2ccc(F)cc2)c2ccccc21` (stereo not shown) [FLU, fluvastatin sodium] the “time of recovery/healing of skin upon removal of occlusion” value was 45 min.
